Literature values as cited in paper PMC11599114 (Viruses, 2024).
Where two headings read alike, the source gives them in different places.

Legend:
HSV-1 = conditions: HSV-1, Vero
HSV-2 = conditions: HSV-2, Vero
SARS-CoV-2 [1] = conditions: SARS-CoV-2, Vero
HCoV-229E [2] = conditions: Vero
HCoV-OC43 = conditions: HCoV-OC43, Vero
HPIV-3 = conditions: HPIV-3, Vero
SARS-CoV [3] = system: SARS-CoV
Dengue virus 2(DENV2) = system: Dengue virus 2(DENV2); set-up: method as in ref 35663971; conditions: DENV2, Huh7, at 10 μM
SARS-CoV-2 [4] = system: SARS-CoV-2; set-up: method as in ref 35663971; conditions: SARS-CoV-2, Huh7, at 10 μM
HSV = system: HSV; set-up: method as in ref 35663971; conditions: Huh7, at 10 μM
SARS-CoV-2(Delta) = system: SARS-CoV-2(Delta); set-up: method as in ref 35259078; conditions: Vero E6
influenza B virus = system: influenza B virus; set-up: method as in ref 35259078; conditions: FluB, MDCK
SARS-CoV-2 (HKU001a) = system: SARS-CoV-2 (HKU001a); set-up: method as in ref 35259078; conditions: Vero E6
influenza A virus(H3N2) = system: influenza A virus(H3N2); set-up: method as in 2 sources; conditions: A(H3N2), MDCK
influenza A virus(H1N1) = system: influenza A virus(H1N1); set-up: method as in 2 sources; conditions: A(H1N1), MDCK
SARS-CoV-2 [5] = system: SARS-CoV-2; set-up: method as in 3 sources; conditions: SARS-CoV-2 S-mediated fusion
SARS-CoV-2 [6] = system: SARS-CoV-2; set-up: method as in 3 sources; conditions: SARS-CoV-2 PsV, Huh-7
SARS-CoV [7] = system: SARS-CoV; remark: listed apart in the source
HCoV-229E [8] = system: HCoV-229E
A/Parma0/5/06 H3N2 = conditions: A/Parma0/5/06 H3N2, MDCK
A/Roma-ISS/02/08 H1N1 = conditions: A/Roma-ISS/02/08 H1N1, MDCK

For FVPWFSKFlKRIL [DRAVPe00383], the IC90 (HSV-1) is listed as 10.5 µM, the IC90 (HSV-2) is listed as 7.99 µM and the IC90 (SARS-CoV-2 [1]) is listed as 12.9 µM. The IC90 (HCoV-229E [2]) was 50 µM, the IC90 (HCoV-OC43) was 16.3 µM and the IC90 (HPIV-3) was over 50 µM.
In the case of FVPWFSKFlkRIL [DRAVPe00384], the IC90 (HSV-1) is given as 12.7 µM, the IC90 (HSV-2) is given as 12.5 µM and the IC90 (SARS-CoV-2 [1]) is given as 25.3 µM. For the same substance, the IC90 (HCoV-229E [2]) was 50 µM, the IC90 (HCoV-OC43) was 29.2 µM and the IC90 (HPIV-3) was over 50 µM.
In the case of GYFVQDDGEWKFTGSSYYY [DRAVPe01421], the IC50 (SARS-CoV [3]) is given as 4 µM.
In the case of KKKKYRNIRRPG [AVP1641], the Activity (SARS coronavirus) is listed as 45 µg/mL.
In the case of MGRFKRFRKKFKKLFKKLS [DRAVPe01948], the inhibition (Dengue virus 2(DENV2)) is given as 50%, the inhibition (SARS-CoV-2 [4]) is given as 80% and the inhibition (HSV) is given as 50%.
For RGAHIKGRWKSRCHRF [DRAVPe01802], the IC50 (SARS-CoV-2(Delta)) is given as 3.9 µg/mL, the IC50 (influenza B virus) is given as 7.1 µg/mL and the IC50 (SARS-CoV-2 (HKU001a)) is given as 2.9 µg/mL. The IC50 (influenza A virus(H3N2)) was 1.6 µg/mL and the IC50 (influenza A virus(H1N1)) was 3.9 µg/mL.
For “SLDYINVTFLDLQDEMNRLQEAIKVLNQSYINLKDI [DRAVPe00419]”, the IC50 (SARS-CoV-2 [5]) is given as 0.0041 ± 0.001 µM, the IC50 (SARS-CoV-2 [6]) is given as 0.0828 ± 0.0221 µM and the IC50 (SARS-CoV [7]) is given as 0.25 µM. The IC50 (HCoV-229E [8]) was 2.01 ± 0.698 µM, the IC50 (HCoV-NL63) was 0.416 ± 0.228 µM and the IC50 (MERS-CoV) was 0.0052 µM.
For TNGESTADWAKN [DRAVPe01645], the EC50 (A/Parma0/5/06 H3N2) is listed as 0.01 µM and the EC50 (A/Roma-ISS/02/08 H1N1) is listed as 0.4 ± 2e-05 µM.
